Bridge positions count the residues as written; N and C are the ends. Square brackets hold non-standard residues; d marks the D form. Peptide text beside a SMILES is read from it. * marks the point of attachment. Trp(1-CH2COOH) = N[C@@H](Cc1cn(CC(=O)O)c2ccccc12)C(=O)O; Trp(1-Me) = Cn1cc(C[C@H](N)C(=O)O)c2ccccc21; Phe(4-F) = N[C@@H](Cc1ccc(F)cc1)C(=O)O; Hyp = O=C(O)[C@@H]1C[C@@H](O)CN1; NMeNle = CCCC[C@H](NC)C(=O)O; Pen = CC(C)(S)[C@H](N)C(=O)O; Pip = O=C(O)[C@@H]1CCCCN1; Dab = NCC[C@H](N)C(=O)O; Dap = NC[C@H](N)C(=O)O; Piv = CC(C)(C)C(=O)*
Molecular target: T1, PD-1/PD-L1 (Homo sapiens, UniProt Q9NZQ7)
T1 construct: TVMV protease site linker (C); made in house; host or cells: HEK293T cells
Assay: PD-1/PD-L1 Homogenous Time-Resolved Fluorescence (HTRF) binding assay
Details: PD-L1-His 10 nM final, PD-1-Ig 20 nM final; inhibitors pre-incubated with PD-L1-His for 15 m
Outline: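 Compounds pre-incubated 15 min with human PD-L1(18-239)-His (10 nM final), then PD-1(25-167)-Ig (20 nM final) added for 15 min, in dPBS with 0.1% BSA and 0.05% Tween-20. Eu-cryptate anti-Ig (1 nM) and APC anti-His (20 nM) added, 30 min equilibration, 665/620 nm ratio read; IC50 reported.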

Structure (SMILES)	IC50 [nM]
CCCC[C@H]1C(=O)N(C)[C@@H](CCCC)C(=O)N[C@@H](CCC(N)=O)C(=O)N[C@H](C(N)=O)C(C)SCC(=O)N[C@@H](Cc2ccc(F)cc2)C(=O)N2CCCC[C@H]2C(=O)N[C@@H](CC(N)=O)C(=O)N2CCC[C@H]2C(=O)N[C@@H](CNC(=O)C(C)(C)C)C(=O)N[C@@H](C(C)C)C(=O)N2C[C@H](O)C[C@H]2C(=O)N[C@@H](Cc2c[nH]c3ccccc23)C(=O)N[C@@H](CCN)C(=O)N[C@@H](Cc2cn(C)c3ccccc23)C(=O)N1C (some centres unmarked) [Example 20220]	16.6
CCCC[C@H]1C(=O)N(C)[C@@H](CCCC)C(=O)N[C@@H](CCC(=O)O)C(=O)N[C@H](C(N)=O)CSCC(=O)N[C@@H](Cc2ccc(F)cc2)C(=O)N2CCCC[C@H]2C(=O)N[C@@H](CC(N)=O)C(=O)N2CCC[C@H]2C(=O)N[C@@H](CNC(=O)C(C)(C)C)C(=O)N[C@@H](CC(C)C)C(=O)N2C[C@H](O)C[C@H]2C(=O)N[C@@H](Cc2c[nH]c3ccccc23)C(=O)N[C@@H](CCNC(=O)C(C)(C)C)C(=O)N[C@@H](Cc2cn(C)c3ccccc23)C(=O)N1C [Example 20230] ({CH2CO}-[Phe(4-F)][Pip]NP[Dap](Piv)L[Hyp]W[Dab](Piv)[Trp(1-Me)][NMeNle][NMeNle]EC-NH2; thioether N-14)	16.6
CCCC[C@H]1C(=O)N(C)[C@@H](CCCC)C(=O)N[C@@H](CCC(N)=O)C(=O)N[C@H](C(N)=O)CSCC(=O)N[C@@H](Cc2ccc(F)cc2)C(=O)N2CCCC[C@H]2C(=O)N[C@@H](CC(=O)O)C(=O)N2CCC[C@H]2C(=O)N[C@@H](CNC(=O)C(C)(C)C)C(=O)N[C@@H](CCCCN)C(=O)N2C[C@H](O)C[C@H]2C(=O)N[C@@H](Cc2c[nH]c3ccccc23)C(=O)N[C@@H](CCN)C(=O)N[C@@H](Cc2cn(C)c3ccccc23)C(=O)N1C [Example 20240] ({CH2CO}-[Phe(4-F)][Pip]DP[Dap](Piv)K[Hyp]W[Dab][Trp(1-Me)][NMeNle][NMeNle]QC-NH2; thioether N-14)	18.4
CCCC[C@H]1C(=O)N(C)[C@@H](CCCC)C(=O)N[C@@H](CC(C)C)C(=O)N[C@H](C(N)=O)CSCC(=O)N[C@@H](Cc2ccc(F)cc2)C(=O)N2CCCC[C@H]2C(=O)N[C@@H](CC(=O)O)C(=O)N2CCC[C@H]2C(=O)N[C@@H](CNC(=O)C(C)(C)C)C(=O)N[C@@H](CC(C)C)C(=O)N2C[C@H](O)C[C@H]2C(=O)N[C@@H](Cc2c[nH]c3ccccc23)C(=O)N[C@@H](CCNC(=O)C(C)(C)C)C(=O)N[C@@H](Cc2cn(CC(=O)O)c3ccccc23)C(=O)N1C [Example 20250] ({CH2CO}-[Phe(4-F)][Pip]DP[Dap](Piv)L[Hyp]W[Dab](Piv)[Trp(1-CH2COOH)][NMeNle][NMeNle]LC-NH2; thioether N-14)	22.9
CCCC[C@H]1C(=O)N(C)[C@@H](CCCC)C(=O)N[C@@H](CC(C)C)C(=O)N[C@H](C(N)=O)CSCC(=O)N[C@@H](Cc2ccc(F)cc2)C(=O)N2CCCC[C@H]2C(=O)N[C@@H](CC(N)=O)C(=O)N2CCC[C@H]2C(=O)N[C@@H](CNC(=O)C(C)(C)C)C(=O)N[C@@H](CC(C)C)C(=O)N2C[C@H](O)C[C@H]2C(=O)N[C@@H](Cc2c[nH]c3ccccc23)C(=O)N[C@@H](CCN)C(=O)N[C@@H](Cc2cn(C)c3ccccc23)C(=O)N1C [Example 20260] ({CH2CO}-[Phe(4-F)][Pip]NP[Dap](Piv)L[Hyp]W[Dab][Trp(1-Me)][NMeNle][NMeNle]LC-NH2; thioether N-14)	28.9
CCCC[C@H]1C(=O)N(C)[C@@H](CCCC)C(=O)N[C@@H](CCC(=O)O)C(=O)N[C@H](C(N)=O)CSCC(=O)N[C@@H](Cc2ccc(F)cc2)C(=O)N2CCCC[C@H]2C(=O)N[C@@H](CC(N)=O)C(=O)N2CCC[C@H]2C(=O)N[C@@H](CNC(=O)C(C)(C)C)C(=O)N[C@@H](CC(C)C)C(=O)N2C[C@H](O)C[C@H]2C(=O)N[C@@H](Cc2c[nH]c3ccccc23)C(=O)N[C@@H](CCN)C(=O)N[C@@H](Cc2cn(C)c3ccccc23)C(=O)N1C [Example 20270] ({CH2CO}-[Phe(4-F)][Pip]NP[Dap](Piv)L[Hyp]W[Dab][Trp(1-Me)][NMeNle][NMeNle]EC-NH2; thioether N-14)	43.2
CCCC[C@H]1C(=O)N(C)[C@@H](CCCC)C(=O)N[C@@H](CC(C)C)C(=O)N[C@H](C(N)=O)CSCC(=O)N[C@@H](Cc2ccc(F)cc2)C(=O)N2CCCC[C@H]2C(=O)N[C@@H](CC(N)=O)C(=O)N2CCC[C@H]2C(=O)N[C@@H](CNC(=O)C(C)(C)C)C(=O)N[C@@H](CC(C)C)C(=O)N2C[C@H](O)C[C@H]2C(=O)N[C@@H](Cc2c[nH]c3ccccc23)C(=O)N[C@@H](CCNC(=O)C(C)(C)C)C(=O)N[C@@H](Cc2cn(C)c3ccccc23)C(=O)N1C [Example 20280] ({CH2CO}-[Phe(4-F)][Pip]NP[Dap](Piv)L[Hyp]W[Dab](Piv)[Trp(1-Me)][NMeNle][NMeNle]LC-NH2; thioether N-14)	50.3

Continued, values first:

IC50 [nM]	Structure (SMILES)
11.8	CCCC[C@H]1C(=O)N(C)[C@@H](CCCC)C(=O)N[C@@H](CCC(=O)O)C(=O)N[C@H](C(N)=O)CSCC(=O)N[C@@H](Cc2ccc(F)cc2)C(=O)N2CCCC[C@H]2C(=O)N[C@@H](CC(N)=O)C(=O)N2CCC[C@H]2C(=O)N[C@@H](CNC(=O)C(C)(C)C)C(=O)N[C@@H](CC(C)C)C(=O)N2C[C@H](O)C[C@H]2C(=O)N[C@@H](Cc2c[nH]c3ccccc23)C(=O)N[C@@H](CCN)C(=O)N[C@@H](Cc2cn(CC(=O)O)c3ccccc23)C(=O)N1C [Example 20130] ({CH2CO}-[Phe(4-F)][Pip]NP[Dap](Piv)L[Hyp]W[Dab][Trp(1-CH2COOH)][NMeNle][NMeNle]EC-NH2; thioether N-14)
12.5	CCCC[C@H]1C(=O)N(C)[C@@H](CCCC)C(=O)N[C@@H](CCC(N)=O)C(=O)N[C@H](C(N)=O)CSCC(=O)N[C@@H](Cc2ccc(F)cc2)C(=O)N2CCCC[C@H]2C(=O)N[C@@H](CC(N)=O)C(=O)N2CCC[C@H]2C(=O)N[C@@H](CNC(=O)C(C)(C)C)C(=O)N[C@@H](CC(C)C)C(=O)N2C[C@H](O)C[C@H]2C(=O)N[C@@H](Cc2c[nH]c3ccccc23)C(=O)N[C@@H](CCN)C(=O)N[C@@H](Cc2cn(C)c3ccccc23)C(=O)N1C [Example 20150] ({CH2CO}-[Phe(4-F)][Pip]NP[Dap](Piv)L[Hyp]W[Dab][Trp(1-Me)][NMeNle][NMeNle]QC-NH2; thioether N-14)
14	CCCC[C@H]1C(=O)N(C)[C@@H](CCCC)C(=O)N[C@@H](CCC(=O)O)C(=O)N[C@H](C(N)=O)CSCC(=O)N[C@@H](Cc2ccc(F)cc2)C(=O)N2CCCC[C@H]2C(=O)N[C@@H](CC(=O)O)C(=O)N2CCC[C@H]2C(=O)N[C@@H](CNC(=O)C(C)(C)C)C(=O)N[C@@H](CC(C)C)C(=O)N2C[C@H](O)C[C@H]2C(=O)N[C@@H](Cc2c[nH]c3ccccc23)C(=O)N[C@@H](CCN)C(=O)N[C@@H](Cc2cn(CC(=O)O)c3ccccc23)C(=O)N1C [Example 20170] ({CH2CO}-[Phe(4-F)][Pip]DP[Dap](Piv)L[Hyp]W[Dab][Trp(1-CH2COOH)][NMeNle][NMeNle]EC-NH2; thioether N-14)
14.1	CCCC[C@H]1C(=O)N(C)[C@@H](CCCC)C(=O)N[C@@H](CC(C)C)C(=O)N[C@H](C(N)=O)C(C)(C)SCC(=O)N[C@@H](Cc2ccc(F)cc2)C(=O)N2CCCC[C@H]2C(=O)N[C@@H](CC(=O)O)C(=O)N2CCC[C@H]2C(=O)N[C@@H](CNC(=O)C(C)(C)C)C(=O)N[C@@H](CC(C)C)C(=O)N2C[C@H](O)C[C@H]2C(=O)N[C@@H](Cc2c[nH]c3ccccc23)C(=O)N[C@@H](CCNC(=O)C(C)(C)C)C(=O)N[C@@H](Cc2cn(CC(=O)O)c3ccccc23)C(=O)N1C [Example 20180] ({CH2CO}-[Phe(4-F)][Pip]DP[Dap](Piv)L[Hyp]W[Dab](Piv)[Trp(1-CH2COOH)][NMeNle][NMeNle]L[Pen]-NH2; thioether N-14)
14.2	CCCC[C@H]1C(=O)N(C)[C@@H](CCCC)C(=O)N[C@@H](CC(C)C)C(=O)N[C@H](C(N)=O)CSCC(=O)N[C@@H](Cc2ccc(F)cc2)C(=O)N2CCCC[C@H]2C(=O)N[C@@H](CC(=O)O)C(=O)N2CCC[C@H]2C(=O)N[C@@H](CNC(=O)C(C)(C)C)C(=O)N[C@@H](CC(C)C)C(=O)N2C[C@H](O)C[C@H]2C(=O)N[C@@H](Cc2c[nH]c3ccccc23)C(=O)N[C@@H](CCN)C(=O)N[C@@H](Cc2cn(C)c3ccccc23)C(=O)N1C [Example 20190] ({CH2CO}-[Phe(4-F)][Pip]DP[Dap](Piv)L[Hyp]W[Dab][Trp(1-Me)][NMeNle][NMeNle]LC-NH2; thioether N-14)
15.8	CCCC[C@H]1C(=O)N(C)[C@@H](CCCC)C(=O)N[C@@H](CC(C)C)C(=O)N[C@H](C(N)=O)CSCC(=O)N[C@@H](Cc2ccc(F)cc2)C(=O)N2CCCC[C@H]2C(=O)N[C@@H](CC(N)=O)C(=O)N2CCC[C@H]2C(=O)N[C@@H](CNC(=O)C(C)(C)C)C(=O)N[C@@H](CC(C)C)C(=O)N2C[C@H](O)C[C@H]2C(=O)N[C@@H](Cc2c[nH]c3ccccc23)C(=O)N[C@@H](CCNC(=O)C(C)(C)C)C(=O)N[C@@H](Cc2cn(CC(=O)O)c3ccccc23)C(=O)N1C [Example 20200] ({CH2CO}-[Phe(4-F)][Pip]NP[Dap](Piv)L[Hyp]W[Dab](Piv)[Trp(1-CH2COOH)][NMeNle][NMeNle]LC-NH2; thioether N-14)
16.4	CCCC[C@H]1C(=O)N(C)[C@@H](CCCC)C(=O)N[C@@H](CC(C)C)C(=O)N[C@H](C(N)=O)C(C)(C)SCC(=O)N[C@@H](Cc2ccc(F)cc2)C(=O)N2CCCC[C@H]2C(=O)N[C@@H](CC(=O)O)C(=O)N2CCC[C@H]2C(=O)N[C@@H](CNC(=O)C(C)(C)C)C(=O)N[C@@H](CC(C)C)C(=O)N2C[C@H](O)C[C@H]2C(=O)N[C@@H](Cc2c[nH]c3ccccc23)C(=O)N[C@@H](CCN)C(=O)N[C@@H](Cc2cn(C)c3ccccc23)C(=O)N1C [Example 20210] ({CH2CO}-[Phe(4-F)][Pip]DP[Dap](Piv)L[Hyp]W[Dab][Trp(1-Me)][NMeNle][NMeNle]L[Pen]-NH2; thioether N-14)

Reference: patent US20220251141A1, “IMMUNOMODULATORS” (Bristol-Myers Squibb Company, priority 2019, published 2022)
